The values below come from patent US20150065440A1 (Progen Pharmaceuticals Limited, priority 2007, published 2015).

The target in one assay is T1, VEGF (Homo sapiens, UniProt P15692).
T1 sequence (P15692 207-395): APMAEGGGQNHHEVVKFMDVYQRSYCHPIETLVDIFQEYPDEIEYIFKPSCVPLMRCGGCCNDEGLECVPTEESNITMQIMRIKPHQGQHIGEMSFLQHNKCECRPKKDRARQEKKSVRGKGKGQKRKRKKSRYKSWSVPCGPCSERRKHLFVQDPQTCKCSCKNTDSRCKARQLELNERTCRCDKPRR
Kind of assay: Growth factor binding assay (SPR solution affinity), VEGF. The settings on record: HBS-EP buffer, 25° C. The method, then:
(§1) Binding affinities of compounds for the growth factors FGF-1, FGF-2 and VEGF were measured using a surface plasmon resonance (SPR) based solution affinity assay.^9 Heparin-coated sensorchips used for this assay were prepared via immobilisation of biotinylated BSA-heparin on a streptavidin-coated sensorchip, or via aldehyde coupling using either adipic acid dihydrazide or 1,4-diaminobutane.^9 For each Kd measurement, solutions were prepared containing a fixed concentration of protein and varying concentrations of the ligand in buffer. Ligands binding to FGF-1 and VEGF were measured in HBS-EP buffer (10 mM HEPES, pH 7.4, 150 mM NaCl, 3.0 mM EDTA and 0.005% (v/v) polysorbate 20), while binding to FGF-2 was measured in HBS-EP buffer containing 0.3 M NaCl. Prior to injection, samples were maintained at 4° C. to maximise protein stability. For each assay mixture, 50-200 μL of solution was injected at 5-40 μL/min and the relative binding response measured. All surface binding experiments were performed at 25° C. The surface was regenerated by injection of 40 μL of 4M NaCl at 40 μL/min, followed by injection of 40 μL of buffer at 40 μL/min.
(§2) Sensorgram data were analysed using the BIAevaluation software (BIAcore) and Kd values determined as previously described.^9 Where Kd values were measured in duplicate, the values represent the average of the duplicate measurements.

In a further assay the target is FGF-1 (Homo sapiens, UniProt P05230). Kind of assay: Growth factor binding assay (SPR solution affinity), FGF-1. The procedure: as §1, §2
Another assay concerns the target FGF-2 (Homo sapiens, UniProt P09038). Put plainly: Growth factor binding assay (SPR solution affinity), FGF-2. The conditions noted are these: SPR, HBS-EP buffer containing 0.3 M NaCl, 25° C.; read-out: Kd FGF-2. The method, then: as §1, §2
Assay [1] has as its system HUVEC proliferation induced by FGF-1. Kind of assay: Growth factor induced endothelial cell proliferation assay, FGF-1. Format: cell-based, human. The conditions noted are these: Homo sapiens, HUVEC, 72 h; read-out: FGF-1 (IC50) inhibition of HUVEC proliferation. The text has this:
(§3) HUVEC cells were maintained and subcultured according to standard cell culture protocols essentially as described by Lonza. Briefly, cells were maintained in Lonza endothelial growth media (EGM) with recommended supplements and growth factors (VEGF, FGF2, EFG, IGF, hydrocortisone, fetal bovine serum (FBS), ascorbic acid, heparin and gentamicin). Cells were subcultured when they reached 70-80% confluence by trypsinisation and reseeding in fresh growth medium in new culture vessels at 2500 to 5000 cells/cm^2 of vessel surface area. Cell counts were performed using a haemocytometer and viable cells were visualized with trypan blue.
(§4) Medium for the proliferation studies was prepared using EGM with 2% FBS and gentamicin only. In a later study, complete EGM was used for the VEGF groups in an attempt to enhance the proliferative index of VEGF-stimulated groups. For the tube formation assay, complete medium was used with only heparin omitted. Compounds under investigation were weighed out from powder stocks and diluted in PBS to 10 mM stock solutions and stored at −80° C. For experiments, compounds were subsequently diluted in EBM-2 medium (supplemented with 2% FBS and gentamicin) to various working concentration as required.
(§5) In the first of a series of experiments, the assay was further optimized by examining the cell density and growth factor concentration required to induce maximal proliferation by growth factors. Briefly, 100 μL of cells was added to each well at concentrations between 1-3×10^3 per well. Growth factors and test compounds were then added in 50 μL volumes at specified concentrations to obtain a final volume of 200 μL. Following incubation for 70 h, 20 μL of the CellTitre 96® Aqueous One Solution Cell Proliferation Assay (Promega) was added for 2 h prior to reading the absorbance at 490 nm to obtain OD values.

Assay [2] deals with HUVEC proliferation induced by FGF-2. Put plainly: Growth factor induced endothelial cell proliferation assay, FGF-2. In kind it is cell-based, human. The conditions noted are these: Homo sapiens, HUVEC, 72 h; read-out: FGF-2 (IC50) inhibition of HUVEC proliferation.
Text: as §3, §4, §5

Assay [3] concerns HUVEC proliferation induced by VEGF. Put plainly: Growth factor induced endothelial cell proliferation assay, VEGF. Format: cell-based, human. The settings on record: Homo sapiens, HUVEC, 72 h; read-out: VEGF (IC50) inhibition of HUVEC proliferation.
Text: as §3, §4, §5

The test system of assay [4] is pooled normal human plasma. Kind of assay: Anticoagulant activity, APTT. The settings on record: 0.1 mg/mL in normal pooled human plasma. The procedure: APTT measurements were performed on a STAGO STA-Compact Coagulation Analyser using standard protocols according to the manufacturer's instructions. Unfractionated heparin (UFH) was used as a control.
For assay [5], the system named is normal pooled human plasma. Put plainly: Anticoagulant activity, Heptest. The conditions noted are these: 0.1 mg/mL in normal pooled human plasma.
The next assay relates to HSV-2. Kind of assay: Viral plaque number-reduction assay, HSV-2. The conditions noted are these: Human alphaherpesvirus 2, read-out: HSV-2 IC50. The method, then: (§6) African green monkey kidney (GMK AH1) cells^46 were cultured in Eagle's minimum essential medium (EMEM) supplemented with 2% calf serum, 0.05% Primaton RL substance (Kraft Inc., Norwich, USA) and antibiotics. Human epidermoid carcinoma (HEp-2) cells were cultured in Dulbecco's modified EMEM (DMEM) supplemented with 10% fetal calf serum and antibiotics. […] The RSV strain A-2^50 was used. The RSV stock was prepared as described by Hallak et al.^51 and stored at −70° C. in the presence of 40% sucrose^52.
(§7) The viral infectivity (the plaque number-reduction) assay and the plaque size-reduction assay were carried out as described previously^17. […] Subsequently, the cells were washed with 2 mL of EMEM and overlaid with 1% methylcellulose solution in EMEM. The plaques were visualized by staining with crystal violet solution after 2 (HSV-2) or 3 (HSV-1) days of incubation at 37° C. […] When the compounds were screened for anti-HSV or anti-RSV activity, mixtures of 200 PFU of the virus and the test compound (100 μg/mL) in serum-free EMEM were incubated for 10 min at room temperature before addition to cells and during the entire period of viral infection of cells and the development of viral plaques. In the plaque size-reduction assay, the compounds were added to cells (in methylcellulose overlay medium) after 2 h period of virus infection of cells in the absence of the inhibitor. After 2-3 days of incubation at 37° C., the viral plaques were visualized by staining the cells with 1% solution of crystal violet. For each compound tested, the images of twenty neighboring plaques were captured using a Leica DC300 digital camera attached to a Leitz-Wetzlar Diavert microscope. The area of each plaque was determined using IM500 image software (Leica). Similar protocols were used for RSV, except that the assays were performed in HEp-2 cells and DMEM supplemented with 2% heat-inactivated fetal calf serum was used instead of EMEM.

For a further assay, the system named is RSV. Put plainly: Viral plaque number-reduction assay, RSV. The conditions noted are these: human respiratory syncytial virus, read-out: RSV IC50. The method, then: as §6, §7

Structures can show the parent of a compound that is named as a salt. Where two headings read alike, the source gives them in different places.

Sequence of FGF-2 (P09038 143-288, species assumed): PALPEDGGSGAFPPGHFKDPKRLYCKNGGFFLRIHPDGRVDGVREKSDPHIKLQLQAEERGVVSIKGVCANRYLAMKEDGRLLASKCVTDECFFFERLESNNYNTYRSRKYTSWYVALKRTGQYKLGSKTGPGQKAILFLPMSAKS
Sequence of FGF-1 (P05230 whole entry, species assumed): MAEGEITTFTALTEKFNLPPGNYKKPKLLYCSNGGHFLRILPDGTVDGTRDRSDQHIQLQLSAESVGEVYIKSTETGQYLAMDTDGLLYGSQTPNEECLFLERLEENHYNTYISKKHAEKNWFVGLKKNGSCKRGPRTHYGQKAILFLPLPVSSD

The Kd is the equilibrium constant for the complex coming apart. On to `CC(C)CCC[C@@H](C)[C@H]1CC[C@H]2[C@@H]3CC[C@H]4C[C@@H](OCc5cn([C@@H]6O[C@H](COS(=O)(=O)O)[C@@H](O[C@H]7O[C@H](COS(=O)(=O)O)[C@@H](OS(=O)(=O)O)[C@H](OS(=O)(=O)O)[C@H]7OS(=O)(=O)O)[C@H](OS(=O)(=O)O)[C@H]6OS(=O)(=O)O)nn5)CC[C@]4(C)[C@H]3CC[C@]12C` [Compound 97, 4-(Cholestan-3β-yl-oxymethyl) [1,2,3]triazol-1-yl 2,3,4,6-tetra-O-sulfo-α-D-glucopyranosyl-(1→4)-2,3,6-tri-O-sulfo-β-D-glucopyranoside, heptasodium salt], for which the Kd worked out at 1.93 ± 0.23 µM at VEGF; 0.84 ± 0.13 µM on FGF-1 (SPR, HBS-EP buffer, 25° C., read-out: Kd FGF-1); 3.4 ± 0.3 µM at FGF-2. The IC50 in [1] came out at 4.09 µM; in assay [2], 4.17 µM; in [3] it was 1.13 µM; in the assay with HSV-2, 0.26 µg/mL; in the assay with RSV, 0.58 µg/mL. The compound further had an APTT in [4] of 40.3 s. Besides, the Heptest in assay [5] is given as 26.7 s.
As to `CC(C)CCCC(C)C1CCC2C3CCC4CC(OC5OC(COS(=O)(=O)O)C(OC6OC(COS(=O)(=O)O)C(OS(=O)(=O)O)C(OS(=O)(=O)O)C6OS(=O)(=O)O)C(OS(=O)(=O)O)C5OS(=O)(=O)O)CCC4(C)C3CCC12C` [Compound 102, 3′-Cholestanyl 2,3,4,6-tetra-O-sulfo-α-D-glucopyranosyl-(1→4)-2,3,6-tri-O-sulfo-β-D-glucopyranoside, heptasodium salt], the figures for the Kd at VEGF, at FGF-1 and at FGF-2 were 1.2 ± 0.4 µM, 0.56 ± 0.03 µM and 2.2 ± 0.4 µM, respectively. In addition, the IC50 in [1] is 3.95 µM; in assay [2], > 10 µM; in assay [3] it was 5.17 µM; in the assay with HSV-2 it was 0.43 µg/mL; in the assay with RSV, 1.8 µg/mL. Moreover, the APTT in assay [4] was determined as 38.6 s. The Heptest in [5] was found to be 23.9 s.
Consider `CC(C)CCC[C@@H](C)[C@H]1CC[C@H]2[C@@H]3CCC4CC(O[C@@H]5O[C@H](COS(=O)(=O)O)[C@@H](O[C@@H]6O[C@H](COS(=O)(=O)O)[C@@H](OS(=O)(=O)O)[C@H](OS(=O)(=O)O)[C@H]6OS(=O)(=O)O)[C@H](OS(=O)(=O)O)[C@H]5OS(=O)(=O)O)CC[C@]4(C)[C@H]3CC[C@]12C` (stereo partly drawn) [Compound 107, 3′-Cholestanyl 2,3,4,6-tetra-O-sulfo-β-D-glucopyranosyl-(1→4)-2,3,6-tri-O-sulfo-β-D-glucopyranoside, heptasodium salt], for which, at VEGF, the Kd came out at 1.35 ± 0.07 µM. Moreover, the IC50 in assay [1] was found to be 5.75 µM; in [2], 5.59 µM; in assay [3] it was 5.56 µM; with HSV-2 it was 0.43 µg/mL; with RSV, 1.9 µg/mL. For the same compound, the APTT in assay [4] turned out to be 38.8 s. This compound also showed a Heptest in [5] of 25.3 s.
